Results reported in US20210122739A1, “NOVEL SULFONAMIDE CARBOXAMIDE COMPOUNDS” (Inflazome Limited, priority 2017, published 2021).

What was measured:
NLRP3 [1] = molecular target: T1, NLRP3 (Homo sapiens, UniProt Q96P20); test: THP-1 cells pyroptosis assay; format: cell-based; parameters: Seed THP-1 cells (25,000 cells/well) containing 1.0 μg/ml LPS; host or cells: THP-1 cells, LPS-primed, nigericin-stimulated; details: 1.0 μg/ml LPS, nigericin 5 μM, resazurin readout
Method in brief: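 THP-1 cells (25,000/well, serum-free RPMI) primed with 1 μg/ml LPS were given compound (8-point half-log series, top 10 μM; 0.1% DMSO) for 3 h at 37 °C, then 5 μM nigericin for 1 h. Viability read by 100 μM resazurin fluorescence (Ex 560/Em 590) after 1–2 h; IC50 from four-parameter nonlinear regression.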

NLRP3 [2] = molecular target: T1, NLRP3; test: Human whole blood IL1β release assay; format: cell-based; parameters: Plate out 80 μl of whole blood containing 1 μg/ml of LPS; from tissue; host or cells: human whole blood from healthy donors, LPS-primed, nigericin-stimulated; details: 1 μg/ml LPS, nigericin 10 μM, IL-1β by AlphaLisa, read-out: HWB IC50
Description: For systemic delivery, the ability to inhibit NLRP3 when the compounds are present within the bloodstream is of great importance. For this reason, the NLRP3 inhibitory activity of a number of compounds in human whole blood was investigated in accordance with the following protocol.
Human whole blood in Li-heparin tubes was obtained from healthy donors from a volunteer donor panel. • 1. Plate out 80 μl of whole blood containing 1 μg/ml of LPS in 96-well, clear bottom cell culture plate (Corning #3585) • 2. Add 10 μl compound (8 points half-log dilution with 10 μM top dose) or vehicle (DMSO 0.1% FAC) to the appropriate wells • 3. Incubate for 3 hrs at 37° C., 5% CO2 • 4. Add 10 μl Nigericin (Sigma #N7143) (10 μM FAC) to all wells • 5. Incubate for 1 hr at 37° C., 5% CO2 • 6. At the end of the incubation period, spin plates at 300×g for 5 mins to pellet cells and remove 20 μl of supernatant and add to 96-well v-bottom plates for IL-1β analysis (note: these plates containing the supernatants can be stored at −80° C. to be analysed at a later date) • 7. IL-1β was measured according to the manufacturer protocol (Perkin Elmer-AlphaLisa IL-1 Kit AL220F-5000) • 8. IC50 data is fitted to anon-linear regression equation (log inhibitor vs response-variable slope 4-parameters)

[3] = PK protocol: pharmacokinetic parameters in male Sprague Dawley rats; format: in vivo; details: plasma, rat; for Vd: read-out: Vdss
Description: Pharmacokinetic parameters were determined in male Sprague Dawley rats (Charles River, UK, 250-350 g; or Vital River Laboratory Animal Technology Co Ltd, Beijing, China, 7-9 weeks old). Animals were individually housed during the study and maintained under a 12 h light/dark cycle. Animals had free access to food and water except that some orally dosed animals were food deprived overnight prior to the study.
For intravenous administration, compounds were formulated as a solution in water or DMSO:PBS [10:90] in 2 mL/kg dosing volume and administered via tail vein. For oral administration, compounds were formulated as a solution in water or DMSO:water [10:90] in 5 mL/kg dosing volume and administered orally.
Serial blood samples (about 120-300 μL) were taken from each animal at each of 8 time-points post dose (0.083, 0.25, 0.5, 1, 2, 4, 8 and 24 h) or at each of 12 time-points post dose (0.03, 0.1, 0.17, 0.25, 0.5, 1, 2, 4, 6, 8, 12 and 24 h) or pre-dose and at each of 9 time-points post dose (0.25, 0.5, 1, 2, 4, 6, 8, 12 and 24 h). Samples were held on ice for no longer than 30 minutes before centrifugation (10,000 rpm (8,385 g) for 3 minutes; or 5,696 rpm (3,000 g) for 15 minutes) for plasma generation. Plasma was frozen on dry ice prior to bioanalysis. PK parameters were generated from LC-MS/MS data using Dotmatics or Phoenix WinNonlin 6.3 software.

[4] = intravenous administration, dose per compound in Dose column (0.83-5.05 mg/kg)
[5] = oral administration, dose per compound in Dose column (3 or 5 mg/kg)

T1 sequence (Q96P20 whole entry): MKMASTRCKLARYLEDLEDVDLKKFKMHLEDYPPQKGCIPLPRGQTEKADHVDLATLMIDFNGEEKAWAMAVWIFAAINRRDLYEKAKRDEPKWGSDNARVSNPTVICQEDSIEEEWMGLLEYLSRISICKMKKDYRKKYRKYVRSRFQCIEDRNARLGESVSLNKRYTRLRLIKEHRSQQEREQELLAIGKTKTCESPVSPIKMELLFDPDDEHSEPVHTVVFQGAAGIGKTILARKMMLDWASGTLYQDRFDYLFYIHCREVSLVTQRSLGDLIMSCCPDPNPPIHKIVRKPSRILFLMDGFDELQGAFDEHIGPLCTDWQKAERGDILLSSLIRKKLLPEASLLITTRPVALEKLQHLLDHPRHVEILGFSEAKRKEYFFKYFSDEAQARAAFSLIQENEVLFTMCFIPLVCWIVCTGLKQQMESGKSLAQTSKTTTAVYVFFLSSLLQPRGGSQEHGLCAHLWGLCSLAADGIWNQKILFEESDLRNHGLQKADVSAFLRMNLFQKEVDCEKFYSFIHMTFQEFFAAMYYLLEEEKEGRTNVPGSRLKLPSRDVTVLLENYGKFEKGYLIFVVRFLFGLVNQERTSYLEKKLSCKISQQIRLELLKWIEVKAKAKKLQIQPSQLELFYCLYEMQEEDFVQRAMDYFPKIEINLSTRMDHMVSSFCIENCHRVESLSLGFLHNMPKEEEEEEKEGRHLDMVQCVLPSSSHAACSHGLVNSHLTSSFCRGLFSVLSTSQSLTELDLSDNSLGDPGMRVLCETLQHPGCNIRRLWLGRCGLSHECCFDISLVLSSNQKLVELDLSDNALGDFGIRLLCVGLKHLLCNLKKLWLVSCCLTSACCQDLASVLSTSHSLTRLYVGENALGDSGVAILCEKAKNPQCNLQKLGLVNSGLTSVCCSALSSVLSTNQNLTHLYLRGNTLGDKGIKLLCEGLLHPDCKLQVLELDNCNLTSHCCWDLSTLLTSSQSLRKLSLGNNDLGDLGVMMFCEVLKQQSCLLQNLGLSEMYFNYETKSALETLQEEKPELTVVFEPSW

**Q.** With CC(C)c1cc(Cl)cc(C(C)C)c1NC(=O)NS(=O)(=O)c1cc(C(=O)N(C)C)n(C)n1 [Example 68, 3-(N-((4-Chloro-2,6-diisopropylphenyl)carbamoyl)sulfamoyl)-N,N,1-trimethyl-1H-pyrazole-5-carboxamide] as the compound, how does the IC50 (NLRP3 [1]) read?
**A.** 40 to 160 nM

**Q.** What about the IC50 (NLRP3 [2]) of the same compound?
**A.** 1600 to 3200 nM

**Q.** And the AUC [3, 4]?
**A.** 353 ng·h/mL

**Q.** What about the clearance [3, 4] of the same compound?
**A.** 161 mL/min/kg

**Q.** What about the half-life [3, 4] of the same compound?
**A.** 1.3 h

**Q.** What about the Vd [3, 4] of the same compound?
**A.** 10.6 L/kg

**Q.** Which results are given for CC(C)c1cc(F)cc(C(C)C)c1NC(=O)NS(=O)(=O)c1cc(C(=O)N(C)C)n(C)n1 [Example 60, 3-(N-((4-Fluoro-2,6-diisopropylphenyl)carbamoyl)sulfamoyl)-N,N,1-trimethyl-1H-pyrazole-5-carboxamide]?
**A.** IC50 (NLRP3 [1]): 160 to 640 nM; IC50 (NLRP3 [2]): < 400 nM; AUC [3, 4]: 283 ng·h/mL; clearance [3, 4]: 59.2 mL/min/kg; half-life [3, 4]: 3.3 h; Vd [3, 4]: 4.08 L/kg; AUC [3, 5]: 770 ng·h/mL; CL/F [3, 5]: 110 mL/min/kg; Cmax [3, 5]: 495 ng/mL; Tmax [3, 5]: 0.17 h; bioavailability [3, 5]: 54.3%; half-life [3, 5]: 9.7 h

**Q.** With CC(C)n1nc(S(=O)(=O)NC(=O)Nc2c3c(cc4c2CCC4)CCC3)cc1C(=O)N1CCC1 [Example 31, 5-(Azetidine-1-carbonyl)-N-((1,2,3,5,6,7-hexahydro-s-indacen-4-yl)carbamoyl)-1-isopropyl-1H-pyrazole-3-sulfonamide] as the compound, how does the IC50 (NLRP3 [1]) read?
**A.** 40 to 160 nM

**Q.** What about the IC50 (NLRP3 [2]) of the same compound?
**A.** 800 to 1600 nM

**Q.** What about the AUC [3, 4] of the same compound?
**A.** 303 ng·h/mL

**Q.** What about the clearance [3, 4] of the same compound?
**A.** 55.3 mL/min/kg

**Q.** What about the half-life [3, 4] of the same compound?
**A.** 1.6 h

**Q.** What about the Vd [3, 4] of the same compound?
**A.** 1.66 L/kg

**Q.** Which results are given for CC(C)c1cccc(C(C)C)c1NC(=O)NS(=O)(=O)c1cc(C(=O)N(C)C)n(C)n1 [Example 67, 3-(N-((2,6-Diisopropylphenyl)carbamoyl)sulfamoyl)-N,N,1-trimethyl-1H-pyrazole-5-carboxamide]?
**A.** IC50 (NLRP3 [1]): 160 to 640 nM; IC50 (NLRP3 [2]): < 400 nM; AUC [3, 4]: 334 ng·h/mL; clearance [3, 4]: 48.7 mL/min/kg; half-life [3, 4]: 0.5 h; Vd [3, 4]: 0.99 L/kg

**Q.** What does the source list for CN(CCO)C(=O)c1cc(S(=O)(=O)NC(=O)Nc2c3c(cc4c2CCC4)CCC3)nn1C [Example 78, 3-(N-((1,2,3,5,6,7-Hexahydro-s-indacen-4-yl)carbamoyl)sulfamoyl)-N-(2-hydroxyethyl)-N,1-dimethyl-1H-pyrazole-5-carboxamide]?
**A.** IC50 (NLRP3 [1]): 40 to 160 nM; IC50 (NLRP3 [2]): < 400 nM

**Q.** Which IC50 (NLRP3 [1]) does the source give for Cn1nc(S(=O)(=O)NC(=O)Nc2c3c(cc4c2CCC4)CCC3)cc1C(=O)N(CCO)CCO [Example 15, 3-(N-((1,2,3,5,6,7-Hexahydro-s-indacen-4-yl)carbamoyl)sulfamoyl)-N,N-bis(2-hydroxyethyl)-1-methyl-1H-pyrazole-5-carboxamide] here?
**A.** 160 to 640 nM

**Q.** And the IC50 (NLRP3 [2])?
**A.** < 400 nM

**Q.** With CNC(=O)c1cc(S(=O)(=O)NC(=O)Nc2c(C(C)C)cc(F)cc2C(C)C)nn1C [Example 50, 3-(N-((4-Fluoro-2,6-diisopropylphenyl)carbamoyl)sulfamoyl)-N,1-dimethyl-1H-pyrazole-5-carboxamide] as the compound, how does the IC50 (NLRP3 [1]) read?
**A.** 160 to 640 nM

**Q.** And the IC50 (NLRP3 [2])?
**A.** < 400 nM

**Q.** For CC(C)c1cc(Cl)cc(C(C)C)c1NC(=O)NS(=O)(=O)c1cc(C(=O)N(C)CCO)n(C)n1 [Example 74, 3-(N-((4-Chloro-2,6-diisopropylphenyl)carbamoyl)sulfamoyl)-N-(2-hydroxyethyl)-N,1-dimethyl-1H-pyrazole-5-carboxamide], which IC50 (NLRP3 [1]) is on record?
**A.** 40 to 160 nM

**Q.** What about the IC50 (NLRP3 [2]) of the same compound?
**A.** 800 to 1600 nM

**Q.** For CCN(C)C(=O)c1cc(S(=O)(=O)NC(=O)Nc2c(C(C)C)cccc2C(C)C)nn1C [Example 56, 3-(N-((2,6-Diisopropylphenyl)carbamoyl)sulfamoyl)-N-ethyl-N,1-dimethyl-1H-pyrazole-5-carboxamide], which IC50 (NLRP3 [1]) is on record?
**A.** 640 to 2560 nM

**Q.** And the IC50 (NLRP3 [2])?
**A.** 1600 to 3200 nM

**Q.** For CN(C(=O)c1cc(S(=O)(=O)NC(=O)Nc2c3c(cc4c2CCC4)CCC3)nn1C)C1CCC1 [Example 7, N-Cyclobutyl-3-(N-((1,2,3,5,6,7-hexahydro-s-indacen-4-yl)carbamoyl)sulfamoyl)-N,1-dimethyl-1H-pyrazole-5-carboxamide], which IC50 (NLRP3 [1]) is on record?
**A.** 160 to 640 nM

**Q.** And the IC50 (NLRP3 [2])?
**A.** 3200 to 10000 nM

**Q.** Which IC50 (NLRP3 [1]) does the source give for COc1cc(-c2ccc3c(c2NC(=O)NS(=O)(=O)c2ccn(C(C)(C)C(=O)N(C)C)n2)CCC3)ccn1 [Example 84] here?
**A.** < 40 nM

**Q.** What about the IC50 (NLRP3 [2]) of the same compound?
**A.** < 400 nM

**Q.** With CC(C)c1cccc(C(C)C)c1NC(=O)NS(=O)(=O)c1cc(C(=O)N(C)C(C)C)n(C)n1 [Example 58, 3-(N-((2,6-Diisopropylphenyl)carbamoyl)sulfamoyl)-N-isopropyl-N,1-dimethyl-1H-pyrazole-5-carboxamide] as the compound, how does the IC50 (NLRP3 [1]) read?
**A.** 160 to 640 nM

**Q.** And the IC50 (NLRP3 [2])?
**A.** 400 to 800 nM

**Q.** What does the source list for CN(CCCO)C(=O)c1cc(S(=O)(=O)NC(=O)Nc2c3c(cc4c2CCC4)CCC3)nn1C [Example 18, 3-(N-((1,2,3,5,6,7-Hexahydro-s-indacen-4-yl)carbamoyl)sulfamoyl)-N-(3-hydroxypropyl)-N,1-dimethyl-1H-pyrazole-5-carboxamide]?
**A.** IC50 (NLRP3 [1]): 160 to 640 nM; IC50 (NLRP3 [2]): 1600 to 3200 nM

**Q.** For CNC(=O)c1cc(S(=O)(=O)NC(=O)Nc2c(C(C)C)cccc2C(C)C)nn1C [Example 55, 3-(N-((2,6-Diisopropylphenyl)carbamoyl)sulfamoyl)-N,1-dimethyl-1H-pyrazole-5-carboxamide], which IC50 (NLRP3 [1]) is on record?
**A.** 160 to 640 nM

**Q.** What about the IC50 (NLRP3 [2]) of the same compound?
**A.** 400 to 800 nM

**Q.** For CC(C)N(C)C(=O)c1cc(S(=O)(=O)NC(=O)Nc2c3c(cc4c2CCC4)CCC3)nn1C [Example 64, 3-(N-((1,2,3,5,6,7-Hexahydro-s-indacen-4-yl)carbamoyl)sulfamoyl)-N-isopropyl-N,1-dimethyl-1H-pyrazole-5-carboxamide], which IC50 (NLRP3 [1]) is on record?
**A.** 40 to 160 nM

**Q.** And the IC50 (NLRP3 [2])?
**A.** 1600 to 3200 nM

**Q.** Which results are given for CNC(=O)c1cc(S(=O)(=O)NC(=O)Nc2c(C(C)C)cc(Cl)cc2C(C)C)nn1C [Example 32, 3-(N-((4-Chloro-2,6-diisopropylphenyl)carbamoyl)sulfamoyl)-N,1-dimethyl-1H-pyrazole-5-carboxamide]?
**A.** IC50 (NLRP3 [1]): 160 to 640 nM; IC50 (NLRP3 [2]): 1600 to 3200 nM

**Q.** For CC(C)c1cccc(C(C)C)c1NC(=O)NS(=O)(=O)c1cc(C(=O)N2CC(F)C2)n(C)n1 [Example 39, N-((2,6-Diisopropylphenyl)carbamoyl)-5-(3-fluoroazetidine-1-carbonyl)-1-methyl-1H-pyrazole-3-sulfonamide], which IC50 (NLRP3 [1]) is on record?
**A.** 640 to 2560 nM

**Q.** What about the IC50 (NLRP3 [2]) of the same compound?
**A.** 800 to 1600 nM

**Q.** Which results are given for CC(C)c1cccc(C(C)C)c1NC(=O)NS(=O)(=O)c1cc(C(=O)N2CCC2)n(C)n1 [Example 51, 5-(Azetidine-1-carbonyl)-N-((2,6-diisopropylphenyl)carbamoyl)-1-methyl-1H-pyrazole-3-sulfonamide]?
**A.** IC50 (NLRP3 [1]): 160 to 640 nM; IC50 (NLRP3 [2]): < 400 nM

**Q.** Which results are given for CN(C(=O)c1cc(S(=O)(=O)NC(=O)Nc2c3c(cc4c2CCC4)CCC3)nn1C)C1CC1 [Example 52, N-Cyclopropyl-3-(N-((1,2,3,5,6,7-hexahydro-s-indacen-4-yl)carbamoyl)sulfamoyl)-N,1-dimethyl-1H-pyrazole-5-carboxamide]?
**A.** IC50 (NLRP3 [1]): 40 to 160 nM; IC50 (NLRP3 [2]): 400 to 800 nM

**Q.** With CCN(CCO)C(=O)c1cc(S(=O)(=O)NC(=O)Nc2c3c(cc4c2CCC4)CCC3)nn1C [Example 20, N-Ethyl-3-(N-((1,2,3,5,6,7-hexahydro-s-indacen-4-yl)carbamoyl)sulfamoyl)-N-(2-hydroxyethyl)-1-methyl-1H-pyrazole-5-carboxamide] as the compound, how does the IC50 (NLRP3 [1]) read?
**A.** 160 to 640 nM

**Q.** What about the IC50 (NLRP3 [2]) of the same compound?
**A.** 800 to 1600 nM

**Q.** For CC(C)c1cc(F)cc(-c2cncnc2)c1NC(=O)NS(=O)(=O)c1cc(C(=O)N(C)C)n(C)n1 [Example 42, 3-(N-((4-Fluoro-2-isopropyl-6-(pyrimidin-5-yl)phenyl)carbamoyl)sulfamoyl)-N,N,1-trimethyl-1H-pyrazole-5-carboxamide], which IC50 (NLRP3 [1]) is on record?
**A.** 160 to 640 nM

**Q.** And the IC50 (NLRP3 [2])?
**A.** < 400 nM
